Measured values published in US20090124690A1, “Generation of Combinatorial Synthetic Libraries and Screening for Novel Proadhesins and Nonadhesins” (priority 2000, published 2009).

Tests used:
Colletotrichum acutatum = experiment: Petri dish assay for activity against Colletotrichum acutatum (spore adhesion); settings: for Inhibition of adhesion of spores to polystyrene surfaces, Colletotrichum acutatum: compound tested at 0.5%
[1] = tested on: Staphylococcus epidermidis; experiment: 96-well plate assay for activity against Staphylococcus epidermidis (adhesion, Syto 13); settings: compound tested at 0.5%
[2] = tested on: MRSA Staphylococcus aureus; experiment: Anti-adhesion assay, MRSA Staphylococcus aureus; type: cell-based; settings: for ICMAX / ICMAX: level of maximal inhibition (ICxx): anti-adhesion, MRSA S. aureus, cell reads 'ICxx - concentration'
Dengue 2 = experiment: Anti-infection (adhesion) of viruses: Dengue 2, focus forming unit (FFU) reduction assay on LLCMK-2 cells; type: cell-based, Dengue virus (DENV-2 strain NG-2); settings: FIG. 6
Protocol: (§1) DENV-1 strain HI-1, DENV-2 strain NG-2, DENV-3 strain H-78, and DENV-4 strain H-42 were obtained from R. Tesh at the World Health Organization Arbovirus Reference Laboratory at the University of Texas at Galveston. Viruses were propagated in the African green monkey kidney epithelial cell line, LLCMK-2, a gift of K. Olsen at Colorado State University. LLCMK-2 cells were grown in DMEM with 10% (v/v) FBS, 2 mM Glutamax, 100 U/ml penicillin G, 100 μg/ml streptomycin and 0.25 μg/ml amphotericin B, at 37° C. with 5% (V/V) CO2.
LLCMK-2 target cells were seeded at a density of 1×10^5 cells in each well of a 6-well plate 24 h prior to infection. Approximately 200 FFU of virus were incubated with or without chemistries in serum-free DMEM for 1 h at rt. […] Virus foci were detected using supernatant from mouse anti-DENV hybridoma E60 (obtained from M. Diamond at Washington University) followed by horseradish peroxidase-conjugated goat anti-mouse immunoglobulin (Pierce, Rockford, Ill.) and developed using AEC chromogen substrate (Dako, Carpinteria, Calif.). Results were expressed as the average of at least two independent trials with three replicates in each trial.

Dengue virus = experiment: Direct binding assay (DART TOF-MS), Dengue virus; settings: FIG. 6
From the text: The virus particles were collected and fixed in 100% (USP) ethanol prior to DART TOF-MS analysis. The closed end of a borosilicate glass capillary tube was immersed in the virion solution and passed through the DART He plasma to obtain mass spectra of virion surface-bound chemistries. […] The same conditions were used to assess the binding of composition here to bacterial species. • 1. […] Viruses and Cells
as §1

P. aerug. = experiment: Library screening against P. aeruginosa (IC50); type: cell-based, Pseudomonas aeruginosa; settings: Table 3

| SMILES | Inhibition of adhesion of spores to polystyrene surfaces, Colletotrichum acutatum (Colletotrichum acutatum) [%] | ICMAX [2] [µM] | ICMAX: level of maximal inhibition (ICxx) [2] | other results |
| --- | --- | --- | --- | --- |
| CNC(=O)C(Cc1ccc(OS(C)(=O)=O)cc1)NC(=O)COCC(=O)Nc1cccc(OS(C)(=O)=O)c1 (stereo not drawn) [Compound A02] | −12 |  |  | Inhibition of adhesion of cells to polystyrene surfaces, Staphylococcus epidermidis [1]: 22% |
| CNC(=O)C(Cc1ccc(OS(=O)(=O)C(F)(F)F)cc1)NC(=O)COCC(=O)Nc1cccc(OS(=O)(=O)C(F)(F)F)c1 (stereo not drawn) [Compound B02] | −16 |  |  |  |
| CCN(CCOC(=O)/C=C/c1ccc(O)cc1)Cc1cc(Cl)ccc1O [Compound I] |  | 120 | IC70 | IC50 ([2]; Staphylococcus aureus, MRSA): 82 µM; IC50 (% wt/vol) C. acut. (Colletotrichum acutatum; Table 3): 0.004 % wt/vol; Dengue infection when compound is bound (Dengue 2): inhibited; direct binding to Dengue virus (DART-MS) (Dengue virus): direct binding; IC50 (% wt/vol) P. aerug. (P. aerug.): 0.001 % wt/vol |
| O=C(O)/C=C/c1ccc(OS(=O)(=O)O)cc1 [Zosteric Acid, reference compound] |  | 90 | IC100 |  |
